Experimental data: patent publication US9701711B2, “Modulators of protease activated receptors” (THE UNIVERSITY OF QUEENSLAND, priority 2010, dated 2017)
“And” between values parts separate entries of the source, which are not always exact repeats. Identical values can stand only once. Like-named read-outs stand apart in the source and are kept apart here.

Legend:
PAR2 [1] = molecular target: T1, PAR2 (Homo sapiens, UniProt P55085); test: PAR2 activation (agonist) by intracellular calcium mobilisation in HT29 cells; type: cell-based; design: Agonists of Ca^2+ release in HT29 cells; endogenous in cells; host or cells: HT29 (human cell line, cultured per ATCC information); conditions: for EC50: Fluo-3 fluorescence
T1 sequence (P55085 26-397): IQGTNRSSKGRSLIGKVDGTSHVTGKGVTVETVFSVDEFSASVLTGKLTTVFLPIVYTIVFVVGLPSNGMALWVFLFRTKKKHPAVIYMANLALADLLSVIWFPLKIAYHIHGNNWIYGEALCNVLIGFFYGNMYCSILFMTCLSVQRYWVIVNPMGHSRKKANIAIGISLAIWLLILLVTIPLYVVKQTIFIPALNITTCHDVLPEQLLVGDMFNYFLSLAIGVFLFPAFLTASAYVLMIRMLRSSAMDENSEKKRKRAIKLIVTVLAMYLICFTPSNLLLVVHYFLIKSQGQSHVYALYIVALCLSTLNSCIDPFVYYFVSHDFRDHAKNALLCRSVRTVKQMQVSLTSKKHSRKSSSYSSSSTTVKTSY
From the text: (§1) The ability of the compounds of the present invention to activate PAR2 may be assessed via calcium mobilisation assays. It is appreciated that compounds that activate the release of intracellular calcium from one type of cell are agonists or partial agonists, while those that inhibit such release may be antagonists. […] The general assay protocols may vary slightly depending on the chosen cell line. In general, during cell culture passage, cell dissociation solution (CDS, Sigma Aldrich) is used to replace trypsin to dissociate cells from surface. Lipopolysaccharide (LPS) and trypsin are purchased from Sigma Aldrich. […] ELISA sets are purchased from BD Pharmingen (San Jose, Calif.) and cytokine array kits are purchased from RayBiotecho (Norcross, Ga.).
(§2) Cells are seeded overnight in 96-well black walled, clear bottomed, plate at approximately 2×10^4 to 4×10^5 cells per well. […] The cells are then washed twice with HBSS and transferred to a Polarstar spectrotluorimeter (BMG, Durham N.C.).
HBSS is prepared in-house and all other reagents are purchased from Invitrogen, Carlsbad. Plates are supplied by DKSH, Zurich. Calcimycin (A23187, Invitrogen) is used to measure maximum fluorescence, with individual results normalized accordingly.
Three different concentrations of 6 added to HT29 cells at room temperature. Duplicate measurements were made for each data point, accordingly, each data point represents mean±SEM. Net changes in fluorescence were calculated as a percentage relative to the maximum response given by 100 μM of the PAR2 agonist 2f-LIGRLO-NH2.

PAR2 [2] = molecular target: T1, PAR2; test: PAR2 agonist inhibition (antagonism) by intracellular Ca2+ release in HT29 cells; type: cell-based; design: Agonists of Ca^2+ release in HT29 cells; endogenous in cells; host or cells: HT29 (human cell line, cultured per ATCC information)
From the text: as §1, §2
The cells are prepared as outlined above then treated with the “putative” antagonist 30 min prior to the addition of either trypsin or a synthetic agonist at a concentration equal to the agonists ED80.
The cells were then treated with 1 μM of the PAR2 agonist 2f-LIGRLO-NH2 (FIG. 2A. n=5) or 100 nM Trypsin (FIG. 2B, n=1). Each data point represents mean±SEM. Net changes in fluorescence were calculated as a percentage relative to the maximum response given 1 μM 2f-LIGRLO-NH2 or 100 nM Trypsin. Changes in fluorescence (% response) were plotted against logarithmic compound concentrations. The half maximal inhibitory concentration (IC50) values were derived from the dose response curve using a nonlinear regression curve in Graphpad Prism v5.

[3] = read-out: EC50, agonist or partial agonist of Ca2+ release in HT29 cells
[4] = EC50, agonist or partial agonist of Ca2+ release in HT29 cells
[5] = HT29 cells, 30 min pre-incubation, then PAR2 agonist (1 μM 2f-LIGRLO-NH2), read-out: IC50, inhibition of Ca2+ release in HT29 cells

SMILES | EC50 (PAR2 [1]; [3]) | IC50 (PAR2 [2]; [5]) [µM] | also measured
CC[C@H](C)[C@H](NC(=O)[C@H](CC1CCCCC1)NC(=O)c1ccno1)C(=O)NCc1ccccc1 [Compound 3] | 30 µM |  | 
CC[C@H](C)[C@H](NC(=O)[C@H](CC1CCCCC1)NC(=O)c1ccno1)C(=O)NCc1ccc(OC)cc1 [Compound 4] | 10 µM |  | 
CC[C@H](C)[C@H](NC(=O)[C@H](CC1CCCCC1)NC(=O)c1ccno1)C(=O)NCc1ccccc1Cl [Compound 5] | 10 µM |  | 
CC[C@H](C)[C@H](NC(=O)[C@H](CC1CCCCC1)NC(=O)c1ccno1)C(=O)NCc1ccccc1F [Compound 6, 5-isoxazoyl-Cha-Ile-aminomethyl-(2-fluoro)phenyl] | ~30 µM and 30 µM |  | Emax at 30 µM (PAR2 [1]; HT-29, compound at 30 μM, room temperature, read-out: Response relative to the maximum response given by 100 μM 2f-LIGRLO-NH2): ≤ 50%
CC[C@H](C)[C@H](NC(=O)[C@H](CC1CCCCC1)NC(=O)c1ccno1)C(=O)NCc1cccc(F)c1 [Compound 7] | 40 µM |  | 
CC[C@H](C)[C@H](NC(=O)[C@H](CC1CCCCC1)NC(=O)c1ccno1)C(=O)NCc1ccc(F)cc1 [Compound 8] | 40 µM |  | 
CC[C@H](C)[C@H](NC(=O)[C@H](CC1CCCCC1)NC(=O)c1ccno1)C(=O)NCc1ccccc1[N+](=O)[O-] [Compound 9] | 10 µM |  | 
CC[C@H](C)[C@H](NC(=O)[C@H](CC1CCCCC1)NC(=O)c1ccno1)C(=O)N1CCN(c2ccc(F)cc2)CC1 [Compound 10] | 10 µM |  | 
CC[C@H](C)[C@H](NC(=O)[C@H](CC1CCCCC1)NC(=O)c1ccno1)C(=O)N1CCc2cc(OC)c(OC)cc2C1 [Compound 11] | 5 to 10 µM |  | 
CC[C@H](C)[C@H](NC(=O)[C@H](CC1CCCCC1)NC(=O)c1ccno1)C(=O)N1CCC(NC(C)=O)(c2ccccc2)CC1 [Compound 12] | 1 to 6 µM |  | 
CC[C@H](C)[C@H](NC(=O)[C@H](CC1CCCCC1)NC(=O)c1ccno1)C(=O)N1CCC2(CC1)CN(S(C)(=O)=O)c1ccccc12 [Compound 13] | 1.8 µM |  | 
CC[C@H](C)[C@H](NC(=O)[C@H](CC1CCCCC1)NC(=O)c1ccno1)C(=O)N1CCC2(CC1)OC(=O)c1ccccc12 [Compound 14] |  |  | EC50 (PAR2 [1]; [4]): 1.3 µM
CC[C@H](C)[C@H](NC(=O)[C@H](CC1CCCCC1)NC(=O)c1ccno1)C(=O)N1CCC2(CC1)CC(=O)c1ccccc1O2 [Compound 15] |  |  | EC50 (PAR2 [1]; [4]): 0.76 µM
CC[C@H](C)[C@H](NC(=O)[C@H](CC1CCCCC1)NC(=O)c1ccno1)C(=O)N1CCC2(CC1)c1ccccc1C(O)C2O (some centres unmarked) [Compound 16] | 5 to 7 µM |  | 
CC[C@H](C)[C@H](NC(=O)[C@H](CC1CCCCC1)NC(=O)c1ccno1)C(=O)N1CCC2(CC1)c1ccccc1C(NCc1ccc(F)cc1)C2O (some centres unmarked) [Compound 17] | 20 µM |  | 
CC[C@H](C)[C@H](NC(=O)[C@H](CC1CCCCC1)NC(=O)c1ccno1)C(=O)NCc1cccc(OC)c1 [Compound 19] |  | 0.5 ± 0.1 | 
CC[C@H](C)[C@H](NC(=O)[C@H](CC1CCCCC1)NC(=O)c1ccno1)C(=O)NCc1ccccc1C [Compound 20] |  | 0.5 ± 0.1 | 
CCOc1ccccc1CNC(=O)[C@@H](NC(=O)[C@H](CC1CCCCC1)NC(=O)c1ccno1)[C@@H](C)CC [Compound 21] |  | 0.7 ± 0.1 | 
CCCOc1ccccc1CNC(=O)[C@@H](NC(=O)[C@H](CC1CCCCC1)NC(=O)c1ccno1)[C@@H](C)CC [Compound 22] |  | 2 | 

SMILES | EC50 (PAR2 [1]; [3]) | IC50 (PAR2 [2]; [5]) [µM] | also measured
CCCCOc1ccccc1CNC(=O)[C@@H](NC(=O)[C@H](CC1CCCCC1)NC(=O)c1ccno1)[C@@H](C)CC [Compound 23] |  | 40 | 
CC[C@H](C)[C@H](NC(=O)[C@H](CC1CCCCC1)NC(=O)c1ccno1)C(=O)NCc1ccccc1OC(C)C [Compound 24, 5-isoxazoyl-Cha-Ile-aminomethyl-(2-isopropoxy)phenyl] |  | 1.3 ± 0.1 | 
CCC(C)Oc1ccccc1CNC(=O)[C@@H](NC(=O)[C@H](CC1CCCCC1)NC(=O)c1ccno1)[C@@H](C)CC (some centres unmarked) [Compound 25] |  |  | IC50 (PAR2 [2]): 1.6 ± 0.4 µM
CC[C@H](C)[C@H](NC(=O)[C@H](CC1CCCCC1)NC(=O)c1ccno1)C(=O)NCc1cccc2c1OCO2 [Compound 26, 5-isoxazoyl-Cha-Ile-aminomethyl-(1,3-dioxalane)phenyl] |  | 0.4 ± 0.1 | 
CC[C@H](C)[C@H](NC(=O)[C@H](CC1CCCCC1)NC(=O)c1ccno1)C(=O)NCc1ccc(Cl)c(Cl)c1 [Compound 27, 5-isoxazoyl-Cha-Ile-aminomethyl-(3,4-dichloro)phenyl] |  | 1.4 ± 0.8 | 
CC[C@H](C)[C@H](NC(=O)[C@H](CC1CCCCC1)NC(=O)c1ccno1)C(=O)NCc1ccccc1C(F)(F)F [Compound 28] |  | 1 to 2 | 
CC[C@H](C)[C@H](NC(=O)[C@H](CC1CCCCC1)NC(=O)c1ccno1)C(=O)NCc1cccc(C(=O)N2CCC(NCCN)(C(=O)NCc3ccccc3)CC2)c1 [Compound 29] |  | 0.7 | 
CC[C@H](C)[C@H](NC(=O)[C@H](CC1CCCCC1)NC(=O)c1ccno1)C(=O)N1CCC(c2ccc(OC)cc2)CC1 [Compound 31] |  | 10 | 
CC[C@H](C)[C@H](NC(=O)[C@H](CC1CCCCC1)NC(=O)c1ccno1)C(=O)N1CCC(c2cc(OC)ccc2OC)CC1 [Compound 32] |  | 5 to 10 | 
CC[C@H](C)[C@H](NC(=O)[C@H](CC1CCCCC1)NC(=O)c1ccno1)C(=O)N1CCC(c2ccccc2C(F)(F)F)CC1 [Compound 33] |  | 10 | 
CC[C@H](C)[C@H](NC(=O)[C@H](CC1CCCCC1)NC(=O)c1ccno1)C(=O)N1CCC(c2ccccc2-c2ccccc2)CC1 [Compound 34] |  | 25 | 
CC[C@H](C)[C@H](NC(=O)[C@H](CC1CCCCC1)NC(=O)c1ccno1)C(=O)N1CCC(Cc2ccccc2)CC1 [Compound 35] |  | 8 | 
CC[C@H](C)[C@H](NC(=O)[C@H](CC1CCCCC1)NC(=O)c1ccno1)C(=O)N1CCCC[C@H]1C(=O)NC(C)(C)C [Compound 36] |  | 8.6 ± 2.6 | 
CC[C@H](C)[C@H](NC(=O)[C@H](CC1CCCCC1)NC(=O)c1ccno1)C(=O)N1CCC2(CCc3ccccc3O2)CC1 [Compound 37, 5-isoxazoyl-Cha-Ile-spiro[chroman-2,4′-piperidine]] |  | 5 to 10 | 
CC[C@H](C)[C@H](NC(=O)[C@H](CC1CCCCC1)NC(=O)c1ccno1)C(=O)N1CCCC(Nc2cccc(C(F)(F)F)c2)C1 (some centres unmarked) [Compound 38] |  | 6 | 
CC[C@H](C)[C@H](NC(=O)[C@H](CC1CCCCC1)NC(=O)c1ccno1)C(=O)N(C)Cc1ccccc1OC [Compound 39, 5-isoxazoyl-Cha-Ile-aminodimethyl-(2-methoxy)phenyl] |  | 6.4 | 
COc1ccccc1CNC(=O)[C@@H](NC(=O)[C@H](CC1CCCCC1)NC(=O)c1ccno1)[C@@H](C)OC [Compound 40, 5-isoxazoyl-Cha-Thr(Me)-aminomethyl-(2-methoxy)phenyl] |  | 1.3 | 
CC[C@H](C)[C@H](NC(=O)[C@H](CC1CCOCC1)NC(=O)c1ccno1)C(=O)N1CCC2(C=Cc3ccccc32)CC1 [Compound 43] |  | 60 | 
